Reference: ChEMBL document CHEMBL3045539, “Synthesis, DNA affinity, and antimicrobial activity of 4-substituted phenyl-2,2-bichalcophenes and aza-analogues” (Med Chem Res, 2012)
Values after ≈ are worked out from the molar mass of the structure shown. Active and inactive are the calls of the source. The rule behind the calls is not given here.

Key:
Escherichia coli [1] = test: Induction of Escherichia coli AB1157 DNA degradation after 1 hr by agarose gel electrophoresis
Albumin = Albumin (Bos taurus, UniProt P02769); test: Induction of Bos taurus (bovine) serum albumin degradation after 1 hr by SDS-PAGE analysis; settings: cattle
Chain of Albumin (P02769 whole entry): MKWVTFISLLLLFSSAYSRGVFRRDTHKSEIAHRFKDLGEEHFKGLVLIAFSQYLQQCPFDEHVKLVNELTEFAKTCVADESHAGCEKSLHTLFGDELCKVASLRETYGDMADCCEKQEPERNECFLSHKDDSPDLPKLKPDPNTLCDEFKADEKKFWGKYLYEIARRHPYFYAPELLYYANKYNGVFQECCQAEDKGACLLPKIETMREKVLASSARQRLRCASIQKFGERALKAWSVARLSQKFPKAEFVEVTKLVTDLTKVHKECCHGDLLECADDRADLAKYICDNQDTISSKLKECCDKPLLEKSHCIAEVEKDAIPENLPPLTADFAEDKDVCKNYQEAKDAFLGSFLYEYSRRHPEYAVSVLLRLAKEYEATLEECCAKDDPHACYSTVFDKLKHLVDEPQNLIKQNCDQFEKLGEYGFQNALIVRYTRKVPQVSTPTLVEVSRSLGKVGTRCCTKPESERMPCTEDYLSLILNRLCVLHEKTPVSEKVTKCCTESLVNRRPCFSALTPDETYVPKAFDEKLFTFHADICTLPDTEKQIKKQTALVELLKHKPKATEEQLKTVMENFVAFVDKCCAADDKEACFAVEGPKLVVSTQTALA

[2] = Antioxidant activity assessed as SOD-like activity measuring inhibition of superoxide radical production at 50 ug after 30 min by NBT reduction assay; type: functional
[3] = Antioxidant activity assessed as DPPH scavenging activity at 50 ug after 30 min by spectrophotometry; type: functional
Saccharomyces cerevisiae [4] = test: Antimicrobial activity against Saccharomyces cerevisiae after 24 hr by CLSI liquid dilution method; type: functional
Staphylococcus aureus [5] = test: Antimicrobial activity against Staphylococcus aureus after 24 hr by CLSI liquid dilution method; type: functional
Pseudomonas aeruginosa [6] = test: Antimicrobial activity against Pseudomonas aeruginosa after 24 hr by CLSI liquid dilution method; type: functional
Bacillus subtilis [7] = test: Antimicrobial activity against Bacillus subtilis after 24 hr by CLSI liquid dilution method; type: functional
Escherichia coli [8] = test: Antimicrobial activity against Escherichia coli after 24 hr by CLSI liquid dilution method; type: functional
Saccharomyces cerevisiae [9] = test: Antimicrobial activity against Saccharomyces cerevisiae at 100 ug after 24 hr by cup diffusion technique; type: functional; settings: read-out: DIZ
Staphylococcus aureus [10] = test: Antimicrobial activity against Staphylococcus aureus at 100 ug after 24 hr by cup diffusion technique; type: functional; settings: read-out: DIZ
Pseudomonas aeruginosa [11] = test: Antimicrobial activity against Pseudomonas aeruginosa after 24 hr by cup diffusion technique; type: functional
Bacillus subtilis [12] = test: Antimicrobial activity against Bacillus subtilis at 100 ug after 24 hr by cup diffusion technique; type: functional; settings: read-out: DIZ
Escherichia coli [13] = test: Antimicrobial activity against Escherichia coli at 100 ug after 24 hr by cup diffusion technique; type: functional; settings: read-out: DIZ

Row | SMILES | Activity (Escherichia coli [1]) | Activity (Albumin) | inhibition [2] [%] | Activity [3] [%] | MIC (Saccharomyces cerevisiae [4]) [µg/mL] | MIC (Staphylococcus aureus [5]) [µg/mL] | MIC (Pseudomonas aeruginosa [6]) [µg/mL] | MIC (Bacillus subtilis [7]) [µg/mL] | MIC (Escherichia coli [8]) [µg/mL] | zone of inhibition at 100 µg/disc (Saccharomyces cerevisiae [9]) [mm] | zone of inhibition at 100 µg/disc (Staphylococcus aureus [10]) [mm] | diameter of the inhibition zone (DIZ) (Pseudomonas aeruginosa [11]) [mm] | zone of inhibition at 100 µg/disc (Bacillus subtilis [12]) [mm] | zone of inhibition at 100 µg/disc (Escherichia coli [13]) [mm]
1 | N=C(N)c1ccc(-c2ccc(-c3cccs3)s2)cc1 [4-(2,2'-BITHIOPHENE-5-YL)BENZAMIDINE] | Active | Not Active | 48.1 | 51.9 | 10 (≈ 35.2 µM) | 15 (≈ 52.7 µM) | 20 (≈ 70.3 µM) | 15 (≈ 52.7 µM) | 10 (≈ 35.2 µM) | 12 | 8 | 8 | 9 | 11
2 | N=C(N)c1ccc(-c2ccc(-c3cccs3)o2)cc1 [4-[5-(THIOPHEN-2-YL)FURAN-2-YL]BENZAMIDINE] |  | Active | 53.7 | 57.7 | 7.5 (≈ 27.9 µM) | 10 (≈ 37.3 µM) | 15 (≈ 55.9 µM) | 10 (≈ 37.3 µM) | 15 (≈ 55.9 µM) | 12 | 10 | 9 | 11 | 9
3 | N#Cc1ccc(-c2ccc(-c3cccs3)s2)cc1 [4-(2,2'-BITHIOPHEN-5-YL)BENZONITRILE] | Active | Active | 57.8 | 61.8 | 10 (≈ 37.4 µM) | 20 (≈ 74.8 µM) | 10 (≈ 37.4 µM) | 20 (≈ 74.8 µM) | 15 (≈ 56.1 µM) | 13 | 9 | 12 | 12 | 10
4 | N#Cc1ccc(-c2ccc(-c3cccs3)o2)nc1 [6-[5-(THIOPHEN-2-YL)FURAN-2-YL]NICOTINONITRILE] | Active | Active | 40.3 |  | 10 (≈ 39.6 µM) | 15 (≈ 59.5 µM) | 10 (≈ 39.6 µM) | 15 (≈ 59.5 µM) | 10 (≈ 39.6 µM) | 16 | 12 | 16 | 13 | 14
5 | N=C(N)c1ccc(-c2ccc(-c3cccs3)o2)nc1 [6-[5-(THIOPHEN-2-YL)FURAN-2-YL]NICOTINAMIDINE] | Active | Active | 44.2 |  | 15 (≈ 55.7 µM) | 10 (≈ 37.1 µM) | 20 (≈ 74.3 µM) | 15 (≈ 55.7 µM) | 15 (≈ 55.7 µM) | 10 | 11 | 7 | 5 | 8
6 | N#Cc1ccc(-c2ccc(-c3ccco3)o2)cc1 [4-(2,2'-BIFURAN-5-YL)BENZONITRILE] | Active | Active | 42.4 |  | 2.5 (≈ 10.6 µM) | 2 (≈ 8.5 µM) | 5 (≈ 21.3 µM) | 2.5 (≈ 10.6 µM) | 2.5 (≈ 10.6 µM) | 16 | 18 | 16 | 19 | 18
7 | N#Cc1ccc(-c2ccc(-c3cccs3)s2)nc1 [6-(2,2'-BITHIOPHEN-5-YL)NICOTINONITRILE] | Active | Not Active | 52.9 | 55.4 | 2.5 (≈ 9.32 µM) | 15 (≈ 55.9 µM) | 7.5 (≈ 27.9 µM) | 10 (≈ 37.3 µM) | 15 (≈ 55.9 µM) | 19 | 13 | 15 | 12 | 13
8 | N=C(N)c1ccc(-c2ccc(-c3ccco3)o2)nc1 [6-(2,2'-BIFURAN-5-YL)NICOTINAMIDINE] | Active | Not Active | 44.6 |  | 10 (≈ 39.5 µM) | 15 (≈ 59.2 µM) | 15 (≈ 59.2 µM) | 15 (≈ 59.2 µM) | 15 (≈ 59.2 µM) | 12 | 6 | 7 | 7 | 9
9 | N#Cc1ccc(-c2ccc(-c3cccs3)o2)cc1 [4-[5-(THIOPHEN-2-YL)FURAN-2-YL]BENZONITRILE] | Active | Not Active | 46.9 | 53.1 | 10 (≈ 39.8 µM) | 15 (≈ 59.7 µM) | 15 (≈ 59.7 µM) | 10 (≈ 39.8 µM) | 15 (≈ 59.7 µM) | 15 | 12 | 16 | 14 | 12
10 | N#Cc1ccc(-c2ccc(-c3ccco3)o2)nc1 [6-(2,2'-BIFURAN-5-YL)NICOTINONITRILE] | Active | Not Active | 34.9 |  | 2 (≈ 8.47 µM) | 2.5 (≈ 10.6 µM) | 5 (≈ 21.2 µM) | 5 (≈ 21.2 µM) | 7.5 (≈ 31.7 µM) | 20 | 17 | 16 | 16 | 14
11 | N=C(N)c1ccc(-c2ccc(-c3cccs3)s2)nc1 [6-(2,2'-BITHIOPHENE-5-YL)NICOTINAMIDINE] | Active | Active | 51.4 | 58.2 | 5 (≈ 17.5 µM) | 15 (≈ 52.6 µM) | 15 (≈ 52.6 µM) | 15 (≈ 52.6 µM) | 10 (≈ 35 µM) | 14 | 10 | 9 | 7 | 10
12 | N=C(N)c1ccc(-c2ccc(-c3ccco3)o2)cc1 [4-(2,2'-BIFURAN-5-YL)BENZAMIDINE] | Active | Active | 39.7 |  | 15 (≈ 59.5 µM) | 20 (≈ 79.3 µM) | 15 (≈ 59.5 µM) | 15 (≈ 59.5 µM) | 20 (≈ 79.3 µM) | 11 | 8 | 10 | 9 | 6
13 | CC1(C)S[C@@H]2[C@H](NC(=O)[C@H](N)c3ccccc3)C(=O)N2[C@H]1C(=O)O [AMPICILLIN] |  |  |  |  | 7.5 (≈ 21.5 µM) | 10 (≈ 28.6 µM) | 15 (≈ 42.9 µM) | 15 (≈ 42.9 µM) | 10 (≈ 28.6 µM) | 17 | 12 | 12 | 18 | 16
